Test results taken from ChEMBL document CHEMBL5291721, “A preclinical secondary pharmacology resource illuminates target-adverse drug reaction associations of marketed drugs” (Nat Commun, 2023).

Experiments:
[1] = biological target: T1, Cholecystokinin receptor type A (Homo sapiens, UniProt P32238)
T1 sequence (P32238 whole entry): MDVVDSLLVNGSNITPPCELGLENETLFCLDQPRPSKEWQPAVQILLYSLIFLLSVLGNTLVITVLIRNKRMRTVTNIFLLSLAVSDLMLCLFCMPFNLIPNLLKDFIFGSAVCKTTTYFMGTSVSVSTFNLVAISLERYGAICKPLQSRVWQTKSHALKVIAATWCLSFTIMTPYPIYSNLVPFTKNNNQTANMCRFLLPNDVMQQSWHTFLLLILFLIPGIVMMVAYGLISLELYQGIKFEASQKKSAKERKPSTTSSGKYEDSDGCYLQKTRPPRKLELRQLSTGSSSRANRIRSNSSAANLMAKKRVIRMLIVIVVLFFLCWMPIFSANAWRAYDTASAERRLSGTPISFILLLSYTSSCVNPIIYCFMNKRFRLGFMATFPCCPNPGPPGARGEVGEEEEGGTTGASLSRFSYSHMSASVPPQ

[2] = biological target: T2, Muscarinic acetylcholine receptor M2 (Homo sapiens, UniProt P08172); format: functional, cell-based
T2 sequence (P08172 whole entry): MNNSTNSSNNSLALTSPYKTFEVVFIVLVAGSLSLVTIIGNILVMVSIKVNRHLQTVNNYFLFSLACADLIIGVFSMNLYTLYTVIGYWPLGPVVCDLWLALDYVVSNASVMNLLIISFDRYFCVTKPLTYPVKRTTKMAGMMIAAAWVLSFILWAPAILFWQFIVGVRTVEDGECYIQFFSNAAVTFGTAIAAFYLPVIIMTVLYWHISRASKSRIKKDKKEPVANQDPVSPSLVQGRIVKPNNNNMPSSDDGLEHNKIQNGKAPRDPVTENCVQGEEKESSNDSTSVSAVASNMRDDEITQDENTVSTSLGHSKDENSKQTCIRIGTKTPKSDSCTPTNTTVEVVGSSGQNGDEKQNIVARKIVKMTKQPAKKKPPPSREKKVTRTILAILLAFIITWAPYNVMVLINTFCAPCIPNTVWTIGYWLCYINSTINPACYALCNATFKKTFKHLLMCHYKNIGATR

[3] = biological target: T3, Alpha-2A adrenergic receptor (Homo sapiens, UniProt P08913); format: functional, cell-based
T3 sequence (P08913 whole entry): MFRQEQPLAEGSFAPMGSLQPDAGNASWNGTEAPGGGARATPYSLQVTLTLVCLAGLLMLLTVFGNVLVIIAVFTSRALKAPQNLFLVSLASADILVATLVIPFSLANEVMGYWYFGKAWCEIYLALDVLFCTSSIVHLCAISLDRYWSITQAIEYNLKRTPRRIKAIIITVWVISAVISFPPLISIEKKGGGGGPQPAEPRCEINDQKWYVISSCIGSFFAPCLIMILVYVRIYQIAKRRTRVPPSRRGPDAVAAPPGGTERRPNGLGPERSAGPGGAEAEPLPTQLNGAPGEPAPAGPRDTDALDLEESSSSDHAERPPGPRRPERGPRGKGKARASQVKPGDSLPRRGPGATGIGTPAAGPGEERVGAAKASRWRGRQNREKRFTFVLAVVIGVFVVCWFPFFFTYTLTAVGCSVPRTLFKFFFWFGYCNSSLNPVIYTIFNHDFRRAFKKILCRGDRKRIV

[4] = biological target: Voltage-gated inwardly rectifying potassium channel KCNH2 (Homo sapiens, UniProt Q12809); format: functional; conditions: read-out: AC50
Voltage-gated inwardly rectifying potassium channel KCNH2, sequence (Q12809 whole entry): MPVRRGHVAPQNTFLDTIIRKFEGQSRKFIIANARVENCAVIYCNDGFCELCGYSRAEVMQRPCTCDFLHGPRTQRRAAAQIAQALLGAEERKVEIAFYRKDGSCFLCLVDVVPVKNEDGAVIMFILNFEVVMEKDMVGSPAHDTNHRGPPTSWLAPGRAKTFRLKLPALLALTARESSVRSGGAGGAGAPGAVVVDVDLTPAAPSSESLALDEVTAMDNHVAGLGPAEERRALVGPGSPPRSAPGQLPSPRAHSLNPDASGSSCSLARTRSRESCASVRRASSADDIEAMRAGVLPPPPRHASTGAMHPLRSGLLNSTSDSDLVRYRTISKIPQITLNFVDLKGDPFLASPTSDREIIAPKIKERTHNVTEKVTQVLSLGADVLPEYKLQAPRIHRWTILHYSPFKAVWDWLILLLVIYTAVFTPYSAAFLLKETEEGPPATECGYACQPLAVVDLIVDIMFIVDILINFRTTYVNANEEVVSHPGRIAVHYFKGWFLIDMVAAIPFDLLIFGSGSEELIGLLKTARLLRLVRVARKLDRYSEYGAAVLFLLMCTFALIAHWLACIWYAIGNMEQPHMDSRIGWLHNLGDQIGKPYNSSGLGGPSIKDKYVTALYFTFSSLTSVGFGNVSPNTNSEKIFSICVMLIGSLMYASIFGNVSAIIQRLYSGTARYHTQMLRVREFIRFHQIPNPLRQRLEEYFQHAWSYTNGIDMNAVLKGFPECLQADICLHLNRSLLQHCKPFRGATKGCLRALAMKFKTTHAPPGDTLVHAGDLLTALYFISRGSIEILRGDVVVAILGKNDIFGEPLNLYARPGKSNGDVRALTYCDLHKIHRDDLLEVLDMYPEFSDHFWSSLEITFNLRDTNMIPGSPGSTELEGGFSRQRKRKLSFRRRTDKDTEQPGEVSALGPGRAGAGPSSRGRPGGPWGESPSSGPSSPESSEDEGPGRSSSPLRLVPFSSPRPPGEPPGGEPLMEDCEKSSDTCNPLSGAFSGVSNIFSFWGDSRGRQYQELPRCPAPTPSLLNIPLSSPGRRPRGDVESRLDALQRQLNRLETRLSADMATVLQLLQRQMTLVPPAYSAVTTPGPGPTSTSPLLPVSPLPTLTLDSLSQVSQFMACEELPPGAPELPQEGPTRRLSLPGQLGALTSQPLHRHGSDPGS

[5] = biological target: T4, Equilibrative nucleoside transporter 1 (Homo sapiens, UniProt Q99808)
T4 sequence (Q99808 whole entry): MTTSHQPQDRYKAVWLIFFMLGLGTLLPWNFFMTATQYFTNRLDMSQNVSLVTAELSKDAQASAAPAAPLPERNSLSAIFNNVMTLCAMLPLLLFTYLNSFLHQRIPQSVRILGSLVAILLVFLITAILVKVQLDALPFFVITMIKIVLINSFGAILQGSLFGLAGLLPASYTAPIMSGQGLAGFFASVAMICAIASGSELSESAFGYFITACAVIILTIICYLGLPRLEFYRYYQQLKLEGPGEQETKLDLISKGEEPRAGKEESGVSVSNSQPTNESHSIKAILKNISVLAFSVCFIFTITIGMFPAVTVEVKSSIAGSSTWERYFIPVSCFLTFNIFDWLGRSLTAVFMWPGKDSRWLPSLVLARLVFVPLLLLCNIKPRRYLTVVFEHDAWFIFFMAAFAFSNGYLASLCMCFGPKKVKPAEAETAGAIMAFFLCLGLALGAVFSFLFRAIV

B2 bradykinin receptor = biological target: T5, B2 bradykinin receptor (Homo sapiens, UniProt P30411)
T5 sequence (P30411 whole entry): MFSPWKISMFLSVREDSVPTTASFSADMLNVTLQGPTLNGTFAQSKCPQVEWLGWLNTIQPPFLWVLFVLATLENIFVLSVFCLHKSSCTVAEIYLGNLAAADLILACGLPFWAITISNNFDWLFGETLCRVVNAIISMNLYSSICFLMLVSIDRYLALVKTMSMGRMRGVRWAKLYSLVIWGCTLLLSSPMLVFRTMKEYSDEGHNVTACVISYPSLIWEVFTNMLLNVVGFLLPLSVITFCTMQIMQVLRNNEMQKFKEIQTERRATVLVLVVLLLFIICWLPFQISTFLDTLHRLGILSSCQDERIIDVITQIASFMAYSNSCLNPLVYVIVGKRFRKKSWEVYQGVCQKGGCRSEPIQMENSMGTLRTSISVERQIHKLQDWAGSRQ

D(1A) dopamine receptor = D(1A) dopamine receptor (Homo sapiens, UniProt P21728); format: functional, cell-based
D(1A) dopamine receptor, sequence (P21728 whole entry): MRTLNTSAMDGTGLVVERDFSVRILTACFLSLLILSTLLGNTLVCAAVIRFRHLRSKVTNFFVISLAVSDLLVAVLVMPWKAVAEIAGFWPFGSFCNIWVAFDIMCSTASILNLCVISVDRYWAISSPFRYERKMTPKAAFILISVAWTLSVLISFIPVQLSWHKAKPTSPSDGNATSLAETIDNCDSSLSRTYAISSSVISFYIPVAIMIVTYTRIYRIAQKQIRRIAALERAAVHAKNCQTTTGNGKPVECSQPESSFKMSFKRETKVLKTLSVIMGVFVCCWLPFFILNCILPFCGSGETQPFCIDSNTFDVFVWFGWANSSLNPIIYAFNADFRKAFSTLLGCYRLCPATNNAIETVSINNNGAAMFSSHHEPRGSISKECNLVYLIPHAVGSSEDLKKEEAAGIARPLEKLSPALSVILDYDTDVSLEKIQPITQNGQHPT

[6] = biological target: 5-hydroxytryptamine receptor 2B (Homo sapiens, UniProt P41595); format: functional, cell-based
5-hydroxytryptamine receptor 2B, sequence (P41595 whole entry): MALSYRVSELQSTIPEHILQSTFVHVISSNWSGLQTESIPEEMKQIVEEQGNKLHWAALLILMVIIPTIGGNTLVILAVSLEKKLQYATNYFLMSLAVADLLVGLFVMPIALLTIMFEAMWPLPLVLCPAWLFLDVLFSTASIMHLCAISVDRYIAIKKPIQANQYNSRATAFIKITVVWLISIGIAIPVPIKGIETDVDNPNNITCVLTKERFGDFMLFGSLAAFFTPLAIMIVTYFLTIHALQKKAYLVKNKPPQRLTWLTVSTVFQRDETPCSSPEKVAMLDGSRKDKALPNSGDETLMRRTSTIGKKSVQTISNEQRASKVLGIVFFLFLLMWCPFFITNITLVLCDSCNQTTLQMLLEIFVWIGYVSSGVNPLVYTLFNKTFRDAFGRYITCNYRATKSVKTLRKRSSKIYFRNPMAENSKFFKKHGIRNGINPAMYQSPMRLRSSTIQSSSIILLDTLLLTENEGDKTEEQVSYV

[7] = biological target: T6, Alpha-2C adrenergic receptor (Homo sapiens, UniProt P18825); format: functional
T6 sequence (P18825 whole entry): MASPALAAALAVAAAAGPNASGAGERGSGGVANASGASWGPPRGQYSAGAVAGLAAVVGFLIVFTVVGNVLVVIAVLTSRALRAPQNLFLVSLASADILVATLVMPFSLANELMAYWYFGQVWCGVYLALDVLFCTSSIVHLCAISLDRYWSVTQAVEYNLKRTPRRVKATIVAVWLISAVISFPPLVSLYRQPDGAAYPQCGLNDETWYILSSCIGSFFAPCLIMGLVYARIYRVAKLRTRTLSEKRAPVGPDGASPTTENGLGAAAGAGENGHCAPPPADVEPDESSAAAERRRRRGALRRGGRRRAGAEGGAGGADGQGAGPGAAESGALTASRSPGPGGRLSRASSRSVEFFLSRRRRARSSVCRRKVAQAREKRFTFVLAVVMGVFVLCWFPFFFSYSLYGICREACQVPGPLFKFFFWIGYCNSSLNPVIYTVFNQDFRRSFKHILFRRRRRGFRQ
Also: assay procedure not described here.

SMILES | AC50 [1] [µM] | AC50 [2] [µM] | AC50 [3] [µM] | AC50 [4] [µM] | AC50 [5] [µM] | AC50 (B2 bradykinin receptor) [µM] | AC50 (D(1A) dopamine receptor) [µM] | AC50 [6] [µM] | AC50 [7] [µM]
COc1ccccc1N1CCN(CCCNc2cc(=O)n(C)c(=O)n2C)CC1 | > 30 | > 30 | 11 | > 30 | > 30 | > 30 | > 30 | 20 | –
Nc1nc(/C(=C/CC(=O)O)C(=O)N[C@@H]2C(=O)N3C(C(=O)O)=CCS[C@H]23)cs1 [CEFTIBUTEN] | > 30 | > 30 | > 30 | > 30 | > 30 | > 30 | > 30 | > 30 | > 30
CO[C@@H]1[C@@H](O[C@@H]2O[C@H](C)[C@@H](O[C@H]3C[C@@](C)(O)[C@@H](OC(=O)CC(C)C)[C@H](C)O3)[C@H](N(C)C)[C@H]2O)[C@@H](CC=O)C[C@@H](C)[C@@H](O)/C=C/C=C/C[C@@H](C)OC(=O)C[C@H]1OC(C)=O [JOSAMYCIN] | > 10 | > 10 | > 10 | > 30 | > 10 | > 10 | > 10 | > 10 | > 10
C#C[C@]1(O)CC[C@H]2[C@@H]3CCC4=Cc5oncc5C[C@]4(C)[C@H]3CC[C@@]21C [DANAZOL] | > 10 | > 10 | > 10 | > 30 | > 10 | > 10 | – | > 10 | > 10
CC(=O)OCC(=O)[C@@]12N=C(C)O[C@@H]1C[C@H]1[C@@H]3CCC4=CC(=O)C=C[C@]4(C)[C@H]3[C@@H](O)C[C@@]12C [DEFLAZACORT] | > 30 | > 30 | > 30 | > 30 | > 30 | > 30 | > 30 | > 30 | > 30
C[C@](N)(Cc1ccc(O)c(O)c1)C(=O)O [METHYLDOPA] | > 10 | > 10 | > 10 | > 30 | > 10 | > 10 | > 30 | > 10 | > 10
CN1C(=O)OC(C)(C)C1=O [TRIMETHADIONE] | > 10 | > 10 | > 10 | > 30 | > 10 | > 10 | > 10 | > 10 | > 10
CCCCc1ncc(/C=C(\Cc2cccs2)C(=O)O)n1Cc1ccc(C(=O)O)cc1 [EPROSARTAN] | > 30 | > 10 | > 10 | > 30 | > 10 | > 30 | > 30 | > 10 | > 10
Cc1cc(O)c(C(=O)N[C@@H](C(=O)N[C@@H]2C(=O)N3C(C(=O)O)=C(CSc4nnnn4C)CS[C@H]23)c2ccc(O)cc2)cn1 [CEFPIRAMIDE] | > 30 | > 30 | > 30 | > 30 | > 30 | > 30 | > 30 | > 30 | > 30
CC(C)C(=O)c1c(C(C)C)nn2ccccc12 [IBUDILAST] | > 30 | > 30 | > 30 | > 30 | > 30 | > 30 | > 30 | > 30 | > 30
COC(=O)[C@H]1[C@H]2C[C@@H]3c4[nH]c5cc(OC)ccc5c4CCN3C[C@H]2C[C@@H](OC(=O)/C=C/c2cc(OC)c(OC)c(OC)c2)[C@@H]1OC [RESCINNAMINE] | > 10 | > 10 | > 10 | 0.988 | > 30 | > 10 | > 30 | > 10 | > 10
COc1ccc2c3c1O[C@H]1[C@@H](O)C=C[C@H]4[C@@H](C2)N(C)CC[C@@]341 [CODEINE] | > 30 | > 10 | > 10 | > 30 | > 30 | > 30 | > 10 | > 10 | > 10
COc1ccc2c3c1O[C@H]1C(=O)CC[C@@]4(O)[C@@H](C2)N(C)CC[C@]314 [OXYCODONE] | > 30 | > 30 | > 30 | > 30 | > 30 | > 30 | > 30 | > 30 | –
CN1CCN(CC/C=C2/c3ccccc3Sc3ccc(S(=O)(=O)N(C)C)cc32)CC1 [THIOTHIXENE] | > 30 | > 10 | 5.9 | 1.63 | > 30 | > 30 | > 30 | 4.9 | –
CN1C(=O)C(O)N=C(c2ccccc2)c2cc(Cl)ccc21 (stereo unspecified) [TEMAZEPAM] | > 30 | > 10 | > 10 | – | > 30 | > 30 | > 10 | > 10 | > 10
C[C@]12CC[C@H]3[C@@H](CCC4=CC(=O)CC[C@@]43C)[C@@H]1CC[C@@H]2O [TESTOSTERONE] | > 10 | > 10 | > 10 | – | > 10 | > 10 | > 30 | > 10 | > 10
CC(CC(c1ccccc1)c1ccccc1)NC(C)(C)C (stereo unspecified) [TERODILINE] | > 30 | 3.1 | > 30 | – | > 30 | > 30 | > 30 | > 30 | > 30
